Source: patent publication US9809853B2, “Calcium-activated chloride channel involved in human sweat formation” (BRAIN Biotechnology Research and Information Network AG, priority 2012, dated 2017)
Each block holds one compound with its values, some of them ahead of it.

What was measured:
[1] = target: T1, CaCC (Ca^2+-activated chloride channels) in NCL-SG3-hsYFP cells (Homo sapiens, UniProt Q5XXA6); test: hsYFP fluorescence quenching (Cl^− efflux/I^− influx) assay in NCL-SG3-hsYFP CaCC activity sensor cells; format: cell-based; conditions: for Effect on hsYFP quenching by Cl^− efflux/I^− influx mediated by ATP: 25 μM; for Dose dependence of inhibition of CaCC-mediated Cl^− efflux: increasing inhibitor concentrations, stimulation with 330 μM ATP
T1 sequence (Q5XXA6 1-986): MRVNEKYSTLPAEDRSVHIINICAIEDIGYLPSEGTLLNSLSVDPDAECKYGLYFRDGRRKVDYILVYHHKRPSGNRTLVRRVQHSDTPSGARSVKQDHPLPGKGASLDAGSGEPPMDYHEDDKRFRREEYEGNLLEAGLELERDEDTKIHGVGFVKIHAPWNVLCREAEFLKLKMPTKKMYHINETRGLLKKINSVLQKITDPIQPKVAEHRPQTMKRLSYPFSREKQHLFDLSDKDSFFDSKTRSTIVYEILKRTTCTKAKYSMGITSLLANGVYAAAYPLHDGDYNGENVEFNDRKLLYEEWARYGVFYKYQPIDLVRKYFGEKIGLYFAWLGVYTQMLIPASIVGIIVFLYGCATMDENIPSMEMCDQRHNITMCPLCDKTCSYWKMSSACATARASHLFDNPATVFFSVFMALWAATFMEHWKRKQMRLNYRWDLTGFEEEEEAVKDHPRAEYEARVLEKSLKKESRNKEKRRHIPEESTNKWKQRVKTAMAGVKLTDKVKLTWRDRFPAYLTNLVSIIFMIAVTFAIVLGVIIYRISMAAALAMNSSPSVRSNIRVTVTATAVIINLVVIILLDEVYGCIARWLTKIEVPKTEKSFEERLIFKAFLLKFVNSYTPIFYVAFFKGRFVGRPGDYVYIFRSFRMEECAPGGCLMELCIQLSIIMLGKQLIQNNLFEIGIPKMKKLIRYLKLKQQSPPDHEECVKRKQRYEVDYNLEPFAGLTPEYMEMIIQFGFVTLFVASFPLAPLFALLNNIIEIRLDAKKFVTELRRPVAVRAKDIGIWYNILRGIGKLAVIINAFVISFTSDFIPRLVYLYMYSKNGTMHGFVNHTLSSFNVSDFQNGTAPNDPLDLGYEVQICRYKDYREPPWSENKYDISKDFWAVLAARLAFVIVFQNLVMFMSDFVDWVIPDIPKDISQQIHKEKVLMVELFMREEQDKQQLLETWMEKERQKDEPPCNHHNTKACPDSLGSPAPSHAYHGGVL
Description: The halide inside the cell functionally interacts with the halide-sensitive cytoplasmic indicator protein, which leads to a quenching of the signal provided by the halide-sensitive cytoplasmic indicator protein. The more halide (such as e.g. iodide) flows into the cell, the weaker the signal emitted by the halide-sensitive cytoplasmic indicator protein becomes. This alteration of the signal emitted by the halide-sensitive cytoplasmic indicator protein is determined in a third step of the method of the invention. Due to the fact that the influx of halide into the cell is proportional to the efflux of chloride ions, the halide influx is used as a direct measure for chloride secretion. To determine the amount of chloride secretion, the fluorescence decrease is plotted against time (Δfluorescence/Δtime) and the initial slope of the resulting graph represents the iodide influx rate (sec^−1), which in turn is directly proportional to the chloride efflux rate, representing the amount of chloride secretion per time. In a fourth step, this amount of chloride secretion determined in the presence of a test compound is compared to the amount of chloride secretion determined in the absence of a said compound.
Effect of CaCC inhibitors on sweat gland-specific Ca^2+-dependent […] and proportional I^− influx was determined using NCL-SG3-hsYFP cells. Quenching of intracellular hsYFP fluorescence was measured and plotted over time. Exemplary raw data (B) and fitted curves are shown (A). NCL-SG3-hsYFP cells were incubated with 50 μM tannic acid (TA), 25 μM niflumic acid (NFA), 25 μM 5-nitro-2-(3-phenylpropyl-amino) benzoic acid (NPPB), 100 μM epigallocatechin-3-gallate (EGCG) for 15 min and then stimulated with 330 μM ATP.
Sweat gland-specific Ca^2+-dependent Cl^− efflux and a proportional I^− influx was determined using NCL-SG3-hsYFP cells. Quenching of intracellular hsYFP fluorescence was measured and plotted over time. Exemplary fitted curves are shown. NCL-SG3-hsYFP cells were incubated with increasing concentrations of tannic acid (TA) and then stimulated with 330 μM ATP. […] NCL-SG3-hsYFP cells were incubated with increasing concentrations of CaCC inhibitors and quenching of intracellular hsYFP fluorescence was measured after stimulation with ATP. The rate of […] (sec^−1), which is proportional to Ca^2+-dependent […] was calculated from the initial slope of the measured hsYFP fluorescence (ΔYFP fluorescence/Δtime) and is a direct measure of CaCC activity. IC50 values were determined by plotting the percentage of residual CaCC activity against the individual inhibitor concentration.
NCL-SG3-hsYFP cells were routinely cultivated in Williams' Medium E supplemented with 9% Fetal Calf Serum, 3.5 mM Glutamine, 9 ng/μl Hydrocortisone, Insulin-Transferrin-Selenium-Supplement (PAA Laboratories) at 37° C. and 5% CO2. For microplate assays, 20,000 cells were seeded in 96-well black-walled, clear bottom microplates (Costar) and cultivated for 2 days until cells reached confluency. Cells were washed three times with 100 μl modified Krebs-Henseleit (KH) buffer (137 mM NaCl, 2.7 mM KCl, 1.2 mM MgSO4, 1.2 mM KH2PO4, 4.2 mM NaHCO3, 1.3 mM CaCl2, 10 mM HEPES, pH 7.4) and incubated with the test compound in 50 μl KH-buffer for 15 min at 37° C. and 5% CO2. Microplates were transferred into an automated fluorescence plate reader (FlexStation®, Molecular Devices) and cellular hsYFP fluorescence was continuously recorded every 3.5 sec until end of the experiment (excitation at 485 nm, emission at 535 nm, cutoff 515 nm).

[2] = tested on: CaCCs in human colonic epithelial cells; conditions: reference (44); cited from earlier work

Compound: C[C@H](CCC(=O)O)C[C@H](C)C[C@H](C)C(=O)/C=C(\O)[C@H](C)C[C@H](C)C/C=C/[C@@H](C)[C@@H](O)[C@@H](C)[C@@H](O)C[C@@H]1CC[C@@](C)([C@H]2CC[C@@](C)([C@@H](C)O)O2)O1 [ionomycin]
Quenching of hsYFP fluorescence after addition of Ca^2+-elevating agent ([1]; 1 μM): quick quenching of the hsYFP fluorescence followed by a slow recovery

Compound: O=C(O)c1cccnc1Nc1cccc(C(F)(F)F)c1 [NFA, niflumic acid]
Effect on hsYFP quenching by Cl^− efflux/I^− influx mediated by ATP ([1]; 15 min, then 330 μM ATP): significant reduction of hsYFP quenching
Dose dependence of inhibition of CaCC-mediated Cl^− efflux [1]: antagonized CaCC-mediated Cl^− efflux in a dose-dependent manner

Effect on hsYFP quenching by Cl^− efflux/I^− influx mediated by ATP ([1]; 15 min, then 330 μM ATP): significant reduction of hsYFP quenching
Compound: O=C(O)c1cc([N+](=O)[O-])ccc1NCCCc1ccccc1 [NPPB, 5-nitro-2-(3-phenylpropyl-amino) benzoic acid]
Dose dependence of inhibition of CaCC-mediated Cl^− efflux [1]: antagonized CaCC-mediated Cl^− efflux in a dose-dependent manner

Compound: epigallocatechin-3-gallate [EGCG]
Inhibition of CaCCs / Cl^− currents [2]: effectively inhibits
Effect on CaCC-mediated Cl^− efflux (hsYFP quenching) mediated by ATP ([1]; 100 μM, 15 min, then 330 μM ATP): no effect
